Experimental data from PubChem BioAssay AID1996.
In brackets after ≈: the same amount, converted by molar mass.

conditions: buffer; pH 7.4; 200.0 µM

| SMILES | solubility kinetic |
| --- | --- |
| Cc1ccc(NC(=S)NCc2ccc(Cl)cc2)c(C)c1 | 2.3 µg/mL (≈ 7.54 µM) |
| O=C(NC1=NCCS1)c1ccccc1Cl | > 36.1 µg/mL |
| CC1CN2C(c3ccc([N+](=O)[O-])cc3)=CSC2=N1 (stereo unspecified) | 26.3 µg/mL (≈ 101 µM) |
| Cc1nc(NC(=O)CSC2=NCCS2)sc1C(=O)N(C)C | > 51.7 µg/mL |
| O=C(Nc1ccccc1F)c1ccc2ncsc2c1 | > 40.8 µg/mL |
| Brc1ccccc1OCCCCN1CCCCC1 | 39.1 µg/mL (≈ 125 µM) |
| COc1cc(NC(=O)COC(=O)C=C(C)C)c(C)cc1[N+](=O)[O-] | 17.2 µg/mL (≈ 53.4 µM) |
| CCN(CC)P(=O)(c1nccn1C)N(CC)CC | 40.7 µg/mL (≈ 149 µM) |
| O=C(NCCc1ccc(Cl)cc1)Nc1ccc(Cl)cc1 | < 0.3 µg/mL |
| CCOC(=O)c1ccc(NC(=O)CCC(=O)NCc2ccco2)cc1 | 4.7 µg/mL (≈ 13.6 µM) |
| C=CC[N+]1(CC=C)CCOCC1.[Br-] | > 37.2 µg/mL |
| O=C(NCCc1ccccc1)c1cccc(Br)c1 | 10 µg/mL (≈ 32.9 µM) |
| COc1ccc(C(N)=O)c(OCC(=O)Nc2cc(C)on2)c1 | 11 µg/mL (≈ 36 µM) |
| Cc1ccc(S(=O)(=O)NC(=O)Nc2cc(C)no2)cc1 | > 44.3 µg/mL |
| CCC(=O)N1CCN=C1SCc1cccc(C(F)(F)F)c1 | 40.8 µg/mL (≈ 129 µM) |
| CCOc1ccc(N2C(=O)CC(NCc3ccc(S(N)(=O)=O)cc3)C2=O)cc1 (stereo unspecified) | 48.7 µg/mL (≈ 121 µM) |
| COc1ccccc1CNC(=O)CN1C(=O)NC2(CCC(C)CC2)C1=O (stereo unspecified) | > 53.9 µg/mL |
| CCCN(C(=O)Cc1coc2cc(OC)ccc12)C1CCS(=O)(=O)C1 (stereo unspecified) | > 54.8 µg/mL |
| COc1ccc2cc(C(C)C(=O)NC3CCC(O)CC3)ccc2c1 (stereo unspecified) | 25.3 µg/mL (≈ 77.3 µM) |
| S=C(NCCc1ccccn1)Nc1ccccc1 | 32.1 µg/mL (≈ 125 µM) |
| C=CCNC(=S)/N=c1/ccccn1C | > 31.1 µg/mL |
| O=C(NCc1ccccc1)/C(=C/c1ccco1)NC(=O)c1ccco1 | > 50.5 µg/mL |

| SMILES | solubility kinetic |
| --- | --- |
| CCOc1ccc(-c2nc3scc(-c4cccs4)c3c(=O)[nH]2)cc1 | < 0.4 µg/mL |
| Cc1ccc(S(=O)(=O)N2CCOCC2)cc1NC(=O)COC(=O)C1(C)CC1(Cl)Cl (stereo unspecified) | > 69.8 µg/mL |
| CN(c1ccccc1)S(=O)(=O)c1cccc(NC(=O)C2CCCO2)c1 (stereo unspecified) | > 54.1 µg/mL |
| Cc1sc2ncnc(NCC(O)c3ccccc3)c2c1C (stereo unspecified) | 6.6 µg/mL (≈ 22 µM) |
| NC(=S)c1c(Cl)cc(C(F)(F)F)cc1Cl | 40.6 µg/mL (≈ 148 µM) |
| O=C(CCN1C(=O)S/C(=C\c2ccccc2)C1=O)N1CCCCC1 | 20.6 µg/mL (≈ 59.8 µM) |
| Cc1ccc(C(C[N+](=O)[O-])c2c(N)n(C)c(=O)n(C)c2=O)cc1 (stereo unspecified) | > 47.7 µg/mL |
| Nc1ccccc1SCC(=O)Nc1ccc2c(c1)OCO2 | > 45.4 µg/mL |
| CC1(C)Cc2cccc(C(=O)Nc3ccc(Cl)cc3)c2O1 | 2.4 µg/mL (≈ 7.95 µM) |
| COc1ccccc1CN1CCc2c([nH]c3ccccc23)C1 | 33.1 µg/mL (≈ 113 µM) |
| CC(NC(=O)CCNC(=O)c1ccco1)c1ccc(F)cc1 (stereo unspecified) | > 45.6 µg/mL |
| O=C(Nc1ccc(C2SCCS2)cc1)c1ccccc1 | 1.4 µg/mL (≈ 4.64 µM) |
| CNc1ccc(Cl)nn1 | > 21.5 µg/mL |
| O=C(c1ccc2c(c1)OCO2)C1CCCN(Cc2ccccn2)C1 (stereo unspecified) | 32.8 µg/mL (≈ 101 µM) |
| O=C(CCN1C(=O)c2cccc3cccc(c23)C1=O)NCC1CCCO1 (stereo unspecified) | > 52.9 µg/mL |
| COC(=O)c1ccc(S(=O)(=O)NCCc2ccccc2OC)n1C | 23 µg/mL (≈ 65.3 µM) |
| O=C(COC(=O)CCC(=O)c1cccs1)NCc1cccs1 | > 50.6 µg/mL |
| Cc1cc(NS(=O)(=O)c2ccc(NC(=O)c3ccc(F)cc3)cc2)nc(C)n1 | > 60.1 µg/mL |
| O=C(COc1ccccc1F)NC12CC3CC(CC(C3)C1)C2 | 6.6 µg/mL (≈ 21.8 µM) |
| CCCn1nc(C(=O)NC2CCCC2)c2ccccc2c1=O | > 44.9 µg/mL |
| COc1ccc2cc(C3OCCO3)c(Cl)nc2c1 | 32.1 µg/mL (≈ 121 µM) |
| Cc1ccc(OCCC(=O)OCC(=O)Nc2cc(C)cc(C)c2)cc1 | 4.3 µg/mL (≈ 12.6 µM) |

| SMILES | solubility kinetic |
| --- | --- |
| Cc1ccccc1NC(=S)NC(=O)Cc1ccc(Cl)cc1 | 0.5 µg/mL (≈ 1.57 µM) |
| N#C/C(=C/c1cc[nH]c1)C(N)=S | > 26.6 µg/mL |
| Cc1noc(C)c1COc1ccc(C(=O)Nc2ccccn2)cc1 | 7.6 µg/mL (≈ 23.5 µM) |
| C=CCc1c(C)c(C#N)c2nc3ccccc3n2c1N1CCCCC1 | < 0.2 µg/mL |
| COCC(C)NC(=O)c1cc2c(ccc3ccccc32)oc1=O (stereo unspecified) | 18.1 µg/mL (≈ 58.1 µM) |
| CCOC(=O)c1cccc(NC(=O)Nc2ccc3c(c2)C(=O)OC3)c1 | < 0.4 µg/mL |
| CCn1c(SCc2ccccc2)nc2c(c1=O)SCC2 | 13.5 µg/mL (≈ 44.3 µM) |
| CN1CN(C)c2ccc([N+](=O)[O-])c3cccc1c23 | 2.1 µg/mL (≈ 8.63 µM) |
| CC(C)(C)N(Cc1ccccc1)C(=O)c1cc2ccccc2o1 | 1.1 µg/mL (≈ 3.58 µM) |
| CN1C(=O)/C(=C\c2ccccc2OCc2ccccc2)SC1=S | < 0.7 µg/mL |
| CC1CCCC(NC(=O)COC(=O)/C=C/c2ccc(F)cc2)C1C (stereo unspecified) | 3.3 µg/mL (≈ 9.9 µM) |
| O=S(=O)(Nc1cccc(CO)c1)c1cccs1 | > 40.4 µg/mL |
| O=C(NC1CCN(c2ncccn2)CC1)c1ccccc1Cl | > 47.5 µg/mL |
| NCC(=O)CCC(=O)O | 18.6 µg/mL (≈ 142 µM) |
| COc1cccc(CN(C)C(=O)c2ccc(N3CCCC3)c([N+](=O)[O-])c2)c1 | 21.9 µg/mL (≈ 59.3 µM) |
| COc1cccc(NC(=O)N(CCN(C)C)C(C)c2cccnc2)c1 (stereo unspecified) | > 51.4 µg/mL |
| COc1ccccc1C(=O)Nn1c(C)nc2ccccc2c1=O | > 46.4 µg/mL |
| CC(Sc1ccccc1F)C(=O)Nc1cccc(S(=O)(=O)N2CCOCC2)c1 (stereo unspecified) | > 63.7 µg/mL |
| Cl.Oc1cccc(Nc2ncnc3c2oc2ccccc23)c1 | 2.3 µg/mL |
| CCOc1ccc(CSCCNC(=S)Nc2ccc(OC)cc2)cc1 | 1.1 µg/mL (≈ 2.92 µM) |
| Cc1ccc(NC(=O)N2C3CCCC2CC(NC(=O)C2CC2)C3)cc1 (stereo unspecified) | 9.4 µg/mL (≈ 27.5 µM) |
| CC1(CCl)CN1S(=O)(=O)c1ccccc1 (stereo unspecified) | 30.8 µg/mL (≈ 125 µM) |

| SMILES | solubility kinetic |
| --- | --- |
| Cc1ccc(S(=O)(=O)N2CCN(c3cccc(C)c3)CC2)cc1 | < 0.4 µg/mL |
| O=C(NC1(C(F)(F)F)NC(=O)N(C2CCCCC2)C1=O)c1ccco1 (stereo unspecified) | 50.2 µg/mL (≈ 140 µM) |
| Brc1ccc(OCCCOc2cccc3cccnc23)cc1 | < 0.8 µg/mL |
| Cc1cc(C)nc(NC(=O)c2ccc([N+](=O)[O-])c(C)c2)n1 | 13.3 µg/mL (≈ 46.5 µM) |
| Cc1coc2cc3oc(=O)c(CCC(=O)NCc4ccccn4)c(C)c3cc12 | 3.4 µg/mL (≈ 9.03 µM) |
| COC(=O)c1ccc(S(=O)(=O)c2ccc(Cl)cc2)c(N)c1 | 1.2 µg/mL (≈ 3.68 µM) |
| Cn1c(=O)oc2cc(S(=O)(=O)Nc3ccc(O)cc3)ccc21 | > 48 µg/mL |
| N=c1oc2ccccc2cc1C(=O)Nc1cccc(F)c1 | 0.3 µg/mL (≈ 1.06 µM) |
| CCCCC(=O)Nc1cc(C)c(NC(=O)c2ccco2)cn1 | > 45.2 µg/mL |
| COc1ccc(NS(=O)(=O)c2cc(NC(=O)COc3ccc(OC)cc3)ccc2N2CCOCC2)cc1 | 3.4 µg/mL (≈ 6.44 µM) |
| Cc1cccc(NC(=O)C2CC2c2ccccc2)c1C (stereo unspecified) | 3.8 µg/mL (≈ 14.3 µM) |
| Cc1cc(C)cc(NCc2ccncc2)c1 | 24.8 µg/mL (≈ 117 µM) |
| COC(=O)[C@@H]1CC(O)CN1C(=O)C12CC3CC(CC(C3)C1)C2 (stereo partly specified) | > 46.1 µg/mL |
| O=C(COc1ccccc1Cl)NCCNC(=O)c1ccccn1 | > 50.1 µg/mL |
| CCC(NC(=O)c1ccccc1Br)c1ccccc1 (stereo unspecified) | > 47.7 µg/mL |
| COC(=O)n1c(=O)oc2ccc(S(=O)(=O)N3CCCCC3)cc21 | > 51.1 µg/mL |
| Cc1cc(C)nc(/N=C(\N)Nc2cccc(OCc3ccccc3)c2)n1 | > 52.1 µg/mL |
| CCCCc1nnc(NC(=O)C2=COCCO2)s1 | > 40.4 µg/mL |
| COc1ccc(OC)c(S(=O)(=O)n2ccnc2C(C)C)c1 | 46.1 µg/mL (≈ 149 µM) |
| N#C/C(=C/c1cccs1)c1ccccn1 | 7 µg/mL (≈ 33 µM) |
